Like-named read-outs stand apart in the source and are kept apart here.
How the values were obtained:
Assay type in all cases: cell-based
293S = test: Cell line sensitivity (proliferation, CellTiter-GloII), 293S; conditions: 120 h
Method: (§1) Various GPC3-expressing cell lines were tested for sensitivity to free nemorubicin derivative, PNU-159682, which has the structure:
(§2) [drawing 32] as follows. Proliferation in the presence of PNU-159682 or SG-2057 were assessed using cells plated at 1000 cells per well in 50 μl of normal growth medium in 96-well clear-bottom plates (PerkinElmer Life Sciences). Twenty-four hours later, an additional 50 μl of culture medium with serial dilutions of the drug was added to triplicate wells. Three or 5 days later, cell numbers were determined using CellTiter-GloII (Promega Corp.) and with an EnVision 2101 multilabel reader (PerkinElmer).

293_GPC3 = test: Cell line sensitivity (proliferation, CellTiter-GloII), 293_GPC3; conditions: 120 h
Method: as §1, §2

PC3 = test: Cell line sensitivity (proliferation, CellTiter-GloII), PC3; conditions: Homo sapiens, PC-3, 120 h
Method: as §1, §2

Hep3B.2.1-7 = test: Cell line sensitivity (proliferation, CellTiter-GloII), Hep3B.2.1-7; conditions: 120 h
Method: as §1, §2

Huh7 = test: Cell line sensitivity (proliferation, CellTiter-GloII), Huh7; conditions: Homo sapiens, Huh-7, 120 h
Method: as §1, §2

HepG2 = test: Cell line sensitivity (proliferation, CellTiter-GloII), HepG2; conditions: Homo sapiens
Method: as §1, §2

JHH7 = test: Cell line sensitivity (proliferation, CellTiter-GloII), JHH7
Method: as §1, §2

JHH5 = test: Cell line sensitivity (proliferation, CellTiter-GloII), JHH5; conditions: 120 h
Method: as §1, §2

C=C1C[C@H]2C=Nc3cc(OCCCCCOc4cc5c(cc4OC)C(=O)N4CC(=C)C[C@H]4C=N5)c(OC)cc3C(=O)N2C1 [SG-2057]
EC50 (293S): 0.056 nM | EC50 (293_GPC3): 0.034 nM | EC50 (PC3): 0.122 nM | EC50 (Hep3B.2.1-7): 0.474 nM | EC50 (Huh7): 0.147 nM | EC50 (HepG2; HepG2, 120 h): 0.029 nM | EC50 (JHH7; JHH7, 120 h): 0.135 nM | EC50 (JHH5): 0.105 nM

COc1cccc2c1C(=O)c1c(O)c3c(c(O)c1C2=O)C[C@@](O)(C(=O)CO)C[C@@H]3O[C@H]1C[C@H]2[C@H](O[C@@H]3[C@@H](OC)OCCN32)[C@H](C)O1 [PNU-159682]
EC50 (293S; 293S, free drug, cell numbers three or 5 days after drug addition, read-out: EC50): 0.022 nM | EC50 (293_GPC3; 293_GPC3, free drug, cell numbers three or 5 days after drug addition, read-out: EC50): 0.019 nM | EC50 (PC3; PC3, free drug, cell numbers three or 5 days after drug addition, read-out: EC50): 0.051 nM | EC50 (Hep3B.2.1-7; Hep3B.2.1-7, free drug, cell numbers three or 5 days after drug addition, read-out: EC50): 0.042 nM | EC50 (Huh7; Huh7, free drug, cell numbers three or 5 days after drug addition, read-out: EC50): 0.029 nM | EC50 (HepG2; 120 h, HepG2, free drug, cell numbers three or 5 days after drug addition, read-out: EC50): 0.029 nM | EC50 (JHH7; 120 h, JHH7, free drug, cell numbers three or 5 days after drug addition, read-out: EC50): 0.038 nM | EC50 (JHH5; JHH5, free drug, cell numbers three or 5 days after drug addition, read-out: EC50): 0.031 nM

Source: patent US9926377B2, “Anti-GPC3 antibodies and immunoconjugates” (GENENTECH, INC., priority 2014, dated 2018)
